Literature values, collected in US8202545B2, “Nutraceutical for the prevention and treatment of cancers and diseases affecting the liver” (Canthao Corporation, priority 2003, dated 2012).

How the values were obtained:
chronic hepatitis = chronic hepatitis patients
[1] = system: recurrent and second primary hepatomas; details: treated group vs placebo 49%, P=0.04
[2] = latest phase III clinical trial

## COc1cccc2c1C(=O)c1c(O)c3c(c(O)c1C2=O)C[C@@](O)(C(=O)CO)C[C@@H]3O[C@H]1C[C@H](N)[C@H](O)[C@H](C)O1 [Doxorubicin]
Liver cancer; [2]
  median survival of patients treated: 7 months
  response rate: 11%
Liver cancer; liver cancer patients
  patients in whom agent is effective: less than 20%
Liver cancer; liver cancer patients (Leung and Johnson 2001)
  median survival: less than 6 months

## O=C1O[C@H]([C@@H](O)CO)C(O)=C1O [ascorbic acid]
Human hepatoma cell; decreased from 302
  AFP level in cells: 90
Human hepatoma cell; human hepatoma cells
  cellular growth inhibition as compared to controls: approximately 60%

## interferon
Chronic hepatitis
  overall response rate (normalization of liver enzyme levels and reduction of viral load): roughly 50%

## CC(C)=CCC/C(C)=C/CC/C(C)=C/C=C/C(C)=C/C(=O)O [acyclic retinoid, polyprenoic acid]
[1]
  incidence of recurrent or new hepatoma: 27%
